Assay results reported in US9879043B1, “Synthesis of non-natural cofactor analogs of S-adenosyl-L-methionine using methionine adenosyltransferase” (University of Kentucky Research Foundation, priority 2013, dated 2018).

Tests used:
Type in all cases: biochemical
[1] = molecular target: T1, Sulfolobus solfataricus MAT (sMAT) (Saccharolobus solfataricus, UniProt Q980S9); conditions: ADP in place of ATP, 65° C. for 4 hr, standard assay conditions
T1 sequence (Q980S9 1-404): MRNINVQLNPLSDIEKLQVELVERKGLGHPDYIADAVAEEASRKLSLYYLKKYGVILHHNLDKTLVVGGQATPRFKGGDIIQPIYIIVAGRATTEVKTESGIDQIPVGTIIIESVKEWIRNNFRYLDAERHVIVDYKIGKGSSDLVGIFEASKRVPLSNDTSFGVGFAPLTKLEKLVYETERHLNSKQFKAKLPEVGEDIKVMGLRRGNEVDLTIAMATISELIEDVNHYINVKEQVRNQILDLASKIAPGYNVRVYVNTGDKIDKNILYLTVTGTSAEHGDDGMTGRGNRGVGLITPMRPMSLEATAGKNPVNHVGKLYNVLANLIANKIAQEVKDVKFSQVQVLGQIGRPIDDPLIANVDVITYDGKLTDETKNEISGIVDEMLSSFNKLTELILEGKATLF

[2] = molecular target: Escherichia coli MAT (eMAT) (Escherichia coli, UniProt P0A817); assay: MAT assay, turnover of S/Se-Met analogs to S(Se)AM analogs (RP-HPLC end point); conditions: 2 mM Met analog, 1 mM ATP, 5 μM MAT, pH 8, 4 h, 37° C.; average of two assays
Experimental: Standard uniform assay conditions (2 mM Met analog, 1 mM ATP, 5 μM MAT, 25 mM Tris, 5 mM MgCl2, 50 mM KCl, pH 8, 4 h) were adopted to facilitate this broad assessment. For the thermophilic counterpart (mMAT), reactions were conducted at 65° C., while all other reactions were incubated at 37° C. Production of SAM analogs was determined by an RP-HPLC end point assay to afford complete analysis of the desired SAM analog and/or any corresponding degradation products known to directly derive from the desired SAM analog intermediate. Putative SAM analog and SAM-derived degradative product formation was subsequently confirmed via high-resolution mass spectrometry (HRMS) analysis for all positive reactions (see Table 2).
(§1) To monitor MAT reactions, analytical RP HPLC employed a Luna C18 column (5 μm, 4.6 mm×250 mm; Phenomenex, Torrance, Calif., USA) [gradient of 10% B to 40% B over 15 min, 40% B to 75% B over 5 min (A=10 mM NaH2PO4, 5 mM octane sulfonic acid, pH was adjusted to 3.5 using phosphoric acid; B=acetonitrile) flow rate=1 mL min^−1; A254].
(§2) In vitro MAT reactions were conducted in a volume of 50 μl with 2 mM S/Se-alkylated analog (compounds 2-30), 1 mM ATP and 5 μM purified MAT in 25 mM Tris buffer pH 8.0, 5 mM MgCl2, 50 mM KCl for 4 h. The sMAT and mMAT reactions were conducted at 65° C. while hMATs and eMAT were incubated at 37° C. Reactions were quenched by adding an equal volume of methanol followed by centrifugation (10,000×g for 15 min) to remove the precipitated protein and product formation for each reaction was subsequently analyzed by RP-HPLC using Method D (FIG. 15, first column). For each reaction, percent yield was based upon the integration of species at 254 nm and calculated by dividing the integrated area of product and/or decomposed product by the sum of integrated area of product and/or decomposed product and the remaining substrate. The assays were repeated twice under identical conditions, and Table 2 (and FIG. 5) represents an average value of two assays. The inclusion of adenine and 5′-R-thio-5′-adenosine in these calculations is based upon the established SAM and ATP chemical decomposition pathways which indicate adenine and 5′-R-thio-5′-adenosine to only derive from SAM (not ATP). All putative products were subsequently confirmed by high resolution electrospray ionization (ESI) mass spectra with positive (+) and/or negative (−) mode.

[3] = molecular target: T1, Sulfolobus solfataricus MAT (sMAT); conditions: 2 mM analog, 1 mM ATP, 5 μM sMAT, pH 8.0, 4 h at 65° C.; average of two assays
Experimental: In-vitro sMAT assay: In vitro sMAT reactions were conducted in a volume of 50 μl with 2 mM S/Se-alkylated analog, 1 mM ATP and 5 μM purified sMAT in 25 mM Tris buffer pH 8.0, 5 mM MgCl2, 50 mM KCl for 4 h at 65° C. Reactions were quenched by adding an equal volume of methanol followed by centrifugation (10,000×g for 15 min) to remove the precipitated protein and product formation for each reaction was subsequently analyzed by reverse phase HPLC (RP-HPLC) using method described below. For each reaction, percent yield was based upon the integration of species at 254 nm and calculated by dividing the integrated area of product and/or decomposed product by the sum of integrated area of product and/or decomposed product and the remaining substrate. The assays were repeated twice under identical conditions, and Table 4 (and FIG. 17) represents an average value of two assays. The inclusion of adenine and 5′-R-thio-5′-adenosine in these calculations is based upon the established SAM and ATP chemical decomposition pathways which indicate adenine and 5′-R-thio-5′-adenosine to only derive from SAM (not ATP). All putative products were subsequently confirmed by high resolution electrospray ionization (ESI) mass spectra with positive (+) and/or negative (−) mode.
RP-HPLC method: Reactions were quenched by the addition of equal volume of methanol followed by centrifugation at 10,000 g for 15 min to remove precipitated protein before applying on an analytical Varian ProStar HPLC [Luna C18 column, 5 μm, 4.6 mm×250 mm; Phenomenex, Torrance, Calif., USA; gradient of 10% B to 40% B over 15 min, 40% B to 75% B over 5 min (A=10 mM NaH2PO4, 5 mM octane sulfonic acid, pH was adjusted to 3.5 using phosphoric acid; B=acetonitrile) flow rate=1 mL min^−1; A254].

[4] = molecular target: T2, Methanocaldococcus jannaschii MAT (mMAT) (Methanocaldococcus jannaschii, UniProt Q58605); conditions: 2 mM Met analog, 1 mM ATP, 5 μM MAT, pH 8, 4 h, 65° C.; average of two assays
T2 sequence (Q58605 1-406): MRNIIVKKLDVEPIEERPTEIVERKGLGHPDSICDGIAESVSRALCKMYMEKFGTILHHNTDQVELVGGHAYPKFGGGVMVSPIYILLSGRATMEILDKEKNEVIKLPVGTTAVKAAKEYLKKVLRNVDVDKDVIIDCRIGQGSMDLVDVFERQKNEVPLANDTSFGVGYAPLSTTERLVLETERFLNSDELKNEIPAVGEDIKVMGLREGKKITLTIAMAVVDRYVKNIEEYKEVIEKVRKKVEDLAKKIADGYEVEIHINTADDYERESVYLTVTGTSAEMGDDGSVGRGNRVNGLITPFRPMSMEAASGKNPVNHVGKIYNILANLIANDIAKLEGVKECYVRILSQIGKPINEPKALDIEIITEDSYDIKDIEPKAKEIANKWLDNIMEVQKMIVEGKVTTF
Experimental: (§3) Standard uniform assay conditions (2 mM Met analog, 1 mM ATP, 5 μM MAT, 25 mM Tris, 5 mM MgCl2, 50 mM KCl, pH 8, 4 h) were adopted to facilitate this broad assessment. For the thermophilic counterpart (mMAT), reactions were conducted at 65° C., while all other reactions were incubated at 37° C. Production of SAM analogs was determined by an RP-HPLC end point assay to afford complete analysis of the desired SAM analog and/or any corresponding degradation products known to directly derive from the desired SAM analog intermediate.
as §1
as §2, with “The” for “In vitro MAT reactions were conducted in a volume of 50 μl with 2 mM S/Se-alkylated analog (compounds 2-30), 1 mM ATP and 5 μM purified MAT in 25 mM Tris buffer pH 8.0, 5 mM MgCl2, 50 mM KCl for 4 h. The”

[5] = molecular target: human MAT II catalytic alpha and regulatory beta subunit (hMAT2) (Homo sapiens, UniProt P31153); assay: MAT assay, turnover of S/Se-Met analogs to S(Se)AM analogs (RP-HPLC end point); conditions: 2 mM Met analog, 1 mM ATP, 5 μM MAT, pH 8, 4 h, 37° C.; average of two assays
Experimental: as §3, §1
as §2, with “The” for “In vitro MAT reactions were conducted in a volume of 50 μl with 2 mM S/Se-alkylated analog (compounds 2-30), 1 mM ATP and 5 μM purified MAT in 25 mM Tris buffer pH 8.0, 5 mM MgCl2, 50 mM KCl for 4 h. The”

[6] = molecular target: human MAT I catalytic subunit alpha (hMAT1A) (Homo sapiens, UniProt Q00266); assay: as above; conditions: 2 mM Met analog, 1 mM ATP, 5 μM MAT, pH 8, 4 h, 37° C.; average of two assays
Experimental: as §3, §1
as §2, with “The” for “In vitro MAT reactions were conducted in a volume of 50 μl with 2 mM S/Se-alkylated analog (compounds 2-30), 1 mM ATP and 5 μM purified MAT in 25 mM Tris buffer pH 8.0, 5 mM MgCl2, 50 mM KCl for 4 h. The”

[7] = molecular target: human MAT II catalytic alpha subunit alone (hMAT2A) (Homo sapiens, UniProt P31153); assay: as above; conditions: 2 mM Met analog, 1 mM ATP, 5 μM MAT, pH 8, 4 h, 37° C.; average of two assays
Experimental: as §3, §1
as §2, with “The” for “In vitro MAT reactions were conducted in a volume of 50 μl with 2 mM S/Se-alkylated analog (compounds 2-30), 1 mM ATP and 5 μM purified MAT in 25 mM Tris buffer pH 8.0, 5 mM MgCl2, 50 mM KCl for 4 h. The”

Structure (SMILES)	product formation from ADP and methionine [1]	Percentage Turn-over eMAT [2] [%]	Percentage Turn-Over (sMAT) [3] [%]	Percentage Turn-over mMAT [4] [%]	Percentage Turn-over hMAT2 [5] [%]	Percentage Turn-over hMAT1A [6] [%]	Percentage Turn-over hMAT2A [7] [%]
Nc1ncnc2c1ncn2[C@@H]1O[C@H](COP(=O)(O)OP(=O)(O)O)[C@@H](O)[C@H]1O [ADP]	no detectable product	–	–	–	–	–	–
[N-]=[N+]=NC/C=C/CSCC[C@H](N)C(=O)O [compound 23, (2S)-2-amino-4-{[(2E)-4-azidobut-2-en-1-yl]sulfanyl}butanoic acid]	–	0	28	32	12	2	5
C=C/C=C/CSCC[C@H](N)C(=O)O [compound 16, (2S)-2-amino-4-[(2E)-penta-2,4-dien-1-ylsulfanyl]butanoic acid]	–	4	14	8	44	2	4
C/C=C/CSCC[C@H](N)C(=O)O [compound 11, (2S)-2-amino-4-[(2E)-but-2-en-1-ylsulfanyl]butanoic acid]	–	2	27	30	25	2	5
C=C(C)CSCC[C@H](N)C(=O)O [compound 12, (2S)-2-amino-4-[(2-methylprop-2-en-1-yl)sulfanyl]butanoic acid]	–	0	15	6	2	0	2
